Where “and” joins values, the source holds several entries; their conditions need not be identical. Equal values may be shown once.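 48-hour exposure; five concentrations; linearly interpolated endpoints. GI50 marks 50% less growth. Definition used: TGI = concentration required for complete inhibition of growth.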
How the values were obtained:
Experiment in all cases: NCI-60 cell line screen, 48 h
HCT-116 colon = system: HCT-116 colon
BT-549 breast = system: BT-549 breast
SN12C renal = system: SN12C renal
MCF7 breast = system: MCF7 breast
U251 CNS = system: U251 CNS
NCI-H226 lung = system: NCI-H226 lung
SNB-75 CNS = system: SNB-75 CNS
SF-295 CNS = system: SF-295 CNS
SF-268 CNS = system: SF-268 CNS
SF-539 CNS = system: SF-539 CNS

SMILES	GI50 (HCT-116 colon) [µM]	TGI (HCT-116 colon) [µM]	GI50 (BT-549 breast) [µM]	TGI (BT-549 breast) [µM]	GI50 (SN12C renal) [µM]	TGI (SN12C renal) [µM]	GI50 (MCF7 breast) [µM]	TGI (MCF7 breast) [µM]	GI50 (U251 CNS) [µM]	TGI (U251 CNS) [µM]	GI50 (NCI-H226 lung) [µM]	TGI (NCI-H226 lung) [µM]	GI50 (SNB-75 CNS) [µM]	TGI (SNB-75 CNS) [µM]	GI50 (SF-295 CNS) [µM]	TGI (SF-295 CNS) [µM]	GI50 (SF-268 CNS) [µM]	TGI (SF-268 CNS)	GI50 (SF-539 CNS) [µM]	TGI (SF-539 CNS) [µM]
CC(C)(C)OC(=O)N1Cc2cc3ccccc3nc2C1CO (stereo not given)	> 100	> 100	> 100	> 100	> 100	> 100	> 100	> 100	> 100	> 100	> 100	> 100	> 100	> 100	> 100	> 100	> 100	> 100 µM	> 100	> 100
C[C@@H](Oc1cc(-c2cnn(C3CCNCC3)c2)cnc1N)c1c(Cl)cc(F)cc1Cl	1.12	5.16	4.08	13	1.95	13.3	0.516	2.12	1.93	7.65	2.25	9.87	1.65	4.38	0.505	7.23	3.05	12.1 µM	1.67	3.3
Cc1ccc(C2C3Cc4ccccc4C3=NN2c2ccc(S(=O)(=O)NC(=O)Nc3ccccc3)cc2)cc1 (stereo not given)	3.4	49.1	14.7	34.5	14	26.9	17.1	> 100	14.3	27.3	15.9	49.2	17.9	47.8	12.8	33.6	17.5	55 µM	14.3	30.6
COc1ccc(-c2nnc(Nc3nc(O)c(C4=c5cc(Br)ccc5=NC4=O)s3)o2)cc1	25.5	97.7	6.49	27.9	15.5	52.8	> 43.9	> 100	15.4	30.7	1.02	8.35	21.6	75.2	20.6	60.4	47.5	> 100 µM	17.9	41.3
CCOC(=O)c1ccc(NC(=O)c2cccc(NC3=C(Cl)C(=O)N(Cc4ccccc4)C3=O)c2)cc1	> 100	> 100	> 100	> 100	> 100	> 100	51.3	> 100	> 100	> 100	> 100	> 100	> 100	> 100	> 100	> 100	42.3	> 100 µM	> 100	> 100
O=C(CC1Sc2ccccc2NC1=O)NNc1ccc(F)cc1 (stereo not given)	77.3	> 100	> 100	> 100	22.1	> 100	52	> 100	> 100	> 100	41.3	> 100	14.9	> 100	12.7	> 100	81	> 100 µM	16.3	61.8
c1ccc(/C(=N\Nc2nc3ccccc3s2)c2ccccn2)cc1		9.16		> 100		39.8		> 72.5		> 40.9		29.7		> 100		> 100		> 50.4 µM		> 56.6
CC(=O)O[C@H]1CC[C@]2(C)C3C(=O)C[C@]4(C)[C@@H](C(C)CCC(=O)O)CC[C@@]4(C)[C@@H]3CC[C@H]2C1(C)C (stereo not given in full)	9.37	20.5	17	39.4	> 50	> 50	20.7	> 50	7	20	> 50	> 50	42.7	> 50	17.9	> 50	21.1	> 50 µM	12.8	35.2
CCOC(=O)CCSC1=CC(=O)c2nc3ccccc3c3ccnc1c23	17.1	76.6	17.1	34.3	15.7	31.8	13.3	38.3	29.8	> 100	21.8	73.8	39	> 100	17.1	44.3	17.1	39.4 µM	18.2	35.2
Nc1ncnc2c1ncn2CCCCC(=O)O		> 100		> 100		> 100		> 100		> 100		> 100		> 100		> 100		> 100 µM		> 100
O=C(Nc1ccc(Cl)cc1)N1CCN(c2ccc3nncn3n2)CC1	64	> 100	57.4	> 100	72.4	> 100	35.3	> 100	> 100	> 100	68.4	> 100	> 100	> 100	53.4	> 100	> 100	> 100 µM	> 100	> 100
NS(=O)(=O)c1cc(C(=O)O)c(Cl)c([N+](=O)[O-])c1Cl		> 100		> 100		> 100		> 100		> 100		> 100		> 100		> 100		> 100 µM		> 100
NCCCNc1nc2ccccc2c2c(=O)c3cc(F)cc(Cl)c3sc12	1.72	3.12	12.9	26.7	1.71	3.24	1.19	2.68	1.72	3.37	6.37	23.7	1.54	2.96	1.75	3.2	1.61	3.29 µM	1.83	3.27
O=c1[nH]c2ccccc2n1C1CCN(CCOc2ccccc2)CC1	10.7	> 100	34.2	> 100	34.3	> 100	26.3	> 100	20.5	> 100	30.1	> 100	23.7	> 100	2.87	19.2	39.1	> 100 µM	44.9	> 100
CCS(=O)(=O)N1CCN(c2ccc(Nc3ncc(C(N)=O)c(NC4CC4)n3)cc2)CC1	5.84	> 100	3.19	11.3	2.6	49.6	4.77	> 100	54.1	> 100	7.12	35.9	2.46	9.53	5.01	94.3	13.9	52.9 µM	2.09	10.7
COC(=O)[C@H](CCCCNC(=O)OCc1ccccc1)NC(=O)[C@@H](NC(=O)Nc1cc(C(F)(F)F)cc(C(F)(F)F)c1)C(C)C	> 10	> 10	> 10	> 10	> 10	> 10	> 10	> 10	> 10	> 10	> 10	> 10	> 10	> 10	> 10	> 10	> 10	> 10 µM	> 10	> 10
Nc1no[n+]([O-])c1-c1nnc2c(n1)-c1ccccc1C2=O	1.38	3.62	2.99	12.9	1.86	3.51	1.55	3.94	3.76	13.7	16.1	37.7	17.4	34.5	12.5	34.3	4.4	17.3 µM	1.8	3.67
C1=C\CCCCN2CC[C@H]3[C@H](CCCC/C=C\CCCN4C[C@@H](CCCCC/1)C[C@@H]3C4)C2	4.33	20.8	13.4	27.3	11.6	23.9	3.58	15.1	4.25	16.5	13.5	27.7	3.99	18.9	5.3	12.1	13.6	26.8 µM	3.24	11.5
Cc1nn(-c2ccccc2)c2nc(C)n(-c3ccc(Br)cc3)c(=O)c12	0.425	> 65.4	0.688	67.3	0.721	> 100	0.356	> 100	0.479	> 100	1.01	> 100	0.181	0.725	0.357		2.33	> 100 µM	0.35	7.09
COc1cc(NCCC2CCCCN2)c2ncccc2c1OC (stereo not given)	1.94	3.7	19.9	34.8	2.23	6.77	3.19	15.2	4.12	16	23.5	46.8	3.85	19.5	10.4	31	14.2	41.8 µM	14.1	28.5
O=C(Nc1cc2cc([N+](=O)[O-])ccc2oc1=O)c1cccs1		> 100		> 100		> 100		85.2		> 100		> 100		16.5		> 100		> 100 µM		69.9
C=C1C(=O)O[C@H]2[C@H]1CC/C(COC(=O)N[C@H](Cc1c[nH]c3ccccc13)C(=O)OC)=C\CC[C@@]1(C)O[C@@H]21	1.16	2.59	1.37	2.96	2.08	5.69	1.24	2.99	10	22.1	2.2	5.73	8.35	22.5	10.7	22.7	5.17	19.8 µM	2.01	5.37
CCN(CC)CCCC(C)Nc1ccnc(/C=C/c2ccc(Cl)cc2)c1 (stereo not given)		3.22		8.39		10.9		4.84		3.12	2.02	4.97		4.5		6.3		8.6 µM		3.8
COc1cccc(-c2nn(-c3ccccc3)cc2-c2ccnc(NCCCNS(=O)(=O)c3ccc(C(F)(F)F)cc3)c2)c1	4.18	> 100	4.41	> 100	8.4	> 100	3.87	> 100	5.63	> 100	8.75	> 100	5.1	> 100	3.17	> 100	6.88	> 100 µM	5.66	> 100
NC(=O)c1ncn2c(=O)n(CCCl)nnc12		369		306		546	68.3	379	99.2	447		425	23.7	205	> 68	239	10.7	> 45 µM and 709 µM		164
Cn1cc(-c2nc(-c3cn(C)c4ncccc34)cs2)c2ccccc21	0.802	18.4	2.32	31	4.76	> 100	0.372	17.5	1.53	11.4	2.29	14.4	1.44	4.83	1.22	10.8	4.83	37.3 µM	1.76	4.99

— PubChem BioAssay (NCI)
